Source: ChEMBL document CHEMBL3867482, “Design and synthesis of water soluble β-aminosulfone analogues of SCH 900229 as γ-secretase inhibitors” (Bioorg Med Chem Lett, 2016)
In brackets after ≈: the same amount, converted by molar mass. Each block holds one molecule with its values, some of them ahead of it.

What was measured:
[1] = Selectivity ratio of IC50 for human gamma secretase PS2 (1 to 467 residues) expressed in baculovirus infected sf9 cells co-expressing aph-1a to IC50 for gamma secretase PS1 (1 to 448 residues) expressed in baculovirus infected sf9 cells co-expressing aph-1a
[2] = Kinetic solubility of compound; format: physicochemical; conditions: read-out: Kinetic_solubility
Mus musculus [3] = assay: Antialzheimer activity in B6C3F1 mouse assessed as amyloid beta 40 level in cortex at 10 mg/kg, po administered as single dose after 3 hrs relative to control; format: functional
Mus musculus [4] = assay: Antialzheimer activity in B6C3F1 mouse assessed as amyloid beta 40 level in plasma at 10 mg/kg, po administered as single dose after 3 hrs relative to control; format: functional
[5] = Inhibition of gamma-secretase in HEK293 cell membranes expressing human APP Swedish/London double mutant assessed as reduction in amyloid beta 40 formation after 1 hr by electrochemiluminescence based immunoassay
Cytochrome P450 3A4 [6] = molecular target: T1, Cytochrome P450 3A4 (Homo sapiens, UniProt P08684); assay: Inhibition of CYP3A4 in human liver microsomes preincubated for 30 mins after 30 secs by LC/MS/MS analysis; format: ADME
T1 sequence (P08684 whole entry): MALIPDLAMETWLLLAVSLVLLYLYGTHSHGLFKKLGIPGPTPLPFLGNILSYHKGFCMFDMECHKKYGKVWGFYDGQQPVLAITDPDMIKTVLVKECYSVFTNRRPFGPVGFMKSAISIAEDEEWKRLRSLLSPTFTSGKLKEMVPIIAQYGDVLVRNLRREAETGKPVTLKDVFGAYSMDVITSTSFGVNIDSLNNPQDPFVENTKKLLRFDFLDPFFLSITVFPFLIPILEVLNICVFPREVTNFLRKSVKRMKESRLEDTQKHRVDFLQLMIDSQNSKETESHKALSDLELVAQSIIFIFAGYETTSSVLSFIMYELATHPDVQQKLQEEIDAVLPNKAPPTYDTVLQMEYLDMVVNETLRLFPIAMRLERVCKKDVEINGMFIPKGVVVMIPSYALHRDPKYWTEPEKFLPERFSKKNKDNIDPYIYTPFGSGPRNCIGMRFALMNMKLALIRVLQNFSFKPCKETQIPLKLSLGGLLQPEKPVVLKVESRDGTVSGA

Cytochrome P450 2C9 = Cytochrome P450 2C9 (Homo sapiens, UniProt P11712); assay: Inhibition of CYP2C9 in human liver microsomes after 30 secs by LC/MS/MS analysis; format: ADME
Sequence of Cytochrome P450 2C9 (P11712 whole entry): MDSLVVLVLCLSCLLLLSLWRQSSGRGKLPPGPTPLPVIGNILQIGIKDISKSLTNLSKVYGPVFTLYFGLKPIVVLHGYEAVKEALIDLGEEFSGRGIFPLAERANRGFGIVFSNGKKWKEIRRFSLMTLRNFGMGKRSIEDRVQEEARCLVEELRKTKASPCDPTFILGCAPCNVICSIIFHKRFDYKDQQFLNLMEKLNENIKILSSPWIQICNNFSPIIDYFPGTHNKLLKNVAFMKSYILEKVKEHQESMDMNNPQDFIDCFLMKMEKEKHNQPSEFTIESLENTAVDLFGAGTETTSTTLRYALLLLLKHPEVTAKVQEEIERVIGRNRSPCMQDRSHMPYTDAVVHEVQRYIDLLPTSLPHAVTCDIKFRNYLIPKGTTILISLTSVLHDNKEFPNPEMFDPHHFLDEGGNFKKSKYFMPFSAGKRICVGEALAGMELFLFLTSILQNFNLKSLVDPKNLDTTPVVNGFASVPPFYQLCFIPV

[7] = Clearance in rat hepatocytes assessed per million cells by HPLC/atmospheric pressure chemical ionization/MS analysis; format: ADME, cell-based, Hepatocyte; conditions: read-out: CLH
Cytochrome P450 2D6 = Cytochrome P450 2D6 (Homo sapiens, UniProt P10635); assay: Inhibition of CYP2D6 in human liver microsomes after 30 secs by LC/MS/MS analysis; format: ADME
Sequence of Cytochrome P450 2D6 (P10635 whole entry): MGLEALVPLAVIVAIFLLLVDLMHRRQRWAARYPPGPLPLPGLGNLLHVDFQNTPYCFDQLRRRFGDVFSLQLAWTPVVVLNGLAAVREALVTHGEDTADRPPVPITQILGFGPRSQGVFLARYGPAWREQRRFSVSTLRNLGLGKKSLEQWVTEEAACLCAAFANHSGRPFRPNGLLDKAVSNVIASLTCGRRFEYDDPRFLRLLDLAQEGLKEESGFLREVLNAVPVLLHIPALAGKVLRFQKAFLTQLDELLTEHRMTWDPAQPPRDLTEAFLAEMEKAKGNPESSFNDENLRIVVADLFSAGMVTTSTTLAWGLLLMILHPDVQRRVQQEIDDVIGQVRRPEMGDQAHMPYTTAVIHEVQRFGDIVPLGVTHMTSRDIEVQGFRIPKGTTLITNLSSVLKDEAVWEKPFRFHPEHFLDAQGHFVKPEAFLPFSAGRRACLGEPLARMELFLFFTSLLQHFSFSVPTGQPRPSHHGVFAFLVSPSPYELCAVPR

[8] = Clearance in monkey hepatocytes assessed per million cells by HPLC/atmospheric pressure chemical ionization/MS analysis; format: ADME, cell-based, Macaca mulatta, Hepatocyte; conditions: rhesus monkey, read-out: CLH
Cytochrome P450 3A4 [9] = molecular target: T1, Cytochrome P450 3A4; assay: Inhibition of CYP3A4 in human liver microsomes after 30 secs by LC/MS/MS analysis; format: ADME
[10] = AUC (0 to 6 hrs) in mouse at 10 mg/kg, po by LC/MS/MS analysis; format: ADME, organism-based; parameters: time < 6 hr, dose 10 mg/kg, route oral; conditions: in vivo
[11] = Clearance in dog hepatocytes assessed per million cells by HPLC/atmospheric pressure chemical ionization/MS analysis; format: ADME, cell-based, Canis lupus familiaris, Hepatocyte; conditions: read-out: CLH
[12] = Clearance in human hepatocytes assessed per million cells by HPLC/atmospheric pressure chemical ionization/MS analysis; format: ADME, cell-based, Hepatocyte; conditions: read-out: CLH
[13] = Ratio of drug level in brain to plasma in mouse at 6 hrs; format: ADME, organism-based; conditions: brain and plasma, read-out: BPR

SMILES: CNCCS(=O)(=O)CC[C@@H]1OCC[C@@]2(S(=O)(=O)c3ccc(Cl)cc3)c3c(F)ccc(F)c3OC[C@@H]12
Ratio IC50 [1]: 25

SMILES: CCNCCS(=O)(=O)CC[C@@H]1OCC[C@@]2(S(=O)(=O)c3ccc(Cl)cc3)c3c(F)ccc(F)c3OC[C@@H]12
IC50 (Cytochrome P450 3A4 [6]): 1400 nM
IC50 (Cytochrome P450 2C9): > 20000 nM
hepatocyte CLint [7]: 29.1 µL/min/1e6 cells
IC50 (Cytochrome P450 2D6): > 20000 nM
hepatocyte CLint [8]: 44.6 µL/min/1e6 cells
IC50 (Cytochrome P450 3A4 [9]): > 20000 nM
AUC(0-t) at 6 h [10]: 1.35 µM·h
hepatocyte CLint [11]: 10.8 µL/min/1e6 cells
hepatocyte CLint [12]: 15.1 µL/min/1e6 cells
Kp at 6 h [13]: 0.4
IC50 [5]: 0.9 nM

SMILES: O=C(O)CS(=O)(=O)CC[C@@H]1OCC[C@@]2(S(=O)(=O)c3ccc(Cl)cc3)c3c(F)ccc(F)c3OC[C@@H]12
solubility kinetic [2]: > 200 µM
Activity (Mus musculus [4]): 47%
Ratio IC50 [1]: 22
IC50 [5]: 2.7 nM

SMILES: CCNCCS(=O)(=O)CC[C@@H]1OCC[C@@]2(S(=O)(=O)c3ccc(Cl)cc3)c3c(F)ccc(F)c3OC[C@@H]12.Cl
solubility kinetic [2]: ≥ 200 µM

SMILES: O=S(=O)(CC[C@@H]1OCC[C@@]2(S(=O)(=O)c3ccc(Cl)cc3)c3c(F)ccc(F)c3OC[C@@H]12)CCN1CCCCC1
Ratio IC50 [1]: 9
IC50 [5]: 1.3 nM

SMILES: CC(C)NCCS(=O)(=O)CC[C@@H]1OCC[C@@]2(S(=O)(=O)c3ccc(Cl)cc3)c3c(F)ccc(F)c3OC[C@@H]12
Ratio IC50 [1]: 30
IC50 [5]: 0.5 nM

SMILES: O=S(=O)(CC[C@@H]1OCC[C@@]2(S(=O)(=O)c3ccc(Cl)cc3)c3c(F)ccc(F)c3OC[C@@H]12)CCN1CCCC1
Ratio IC50 [1]: 13
IC50 [5]: 1.1 nM

SMILES: O=S(=O)(CC[C@@H]1OCC[C@@]2(S(=O)(=O)c3ccc(Cl)cc3)c3c(F)ccc(F)c3OC[C@@H]12)[C@@H]1CCNC1 [listing 2 of 2 here]
Ratio IC50 [1]: 21

SMILES: O=S(=O)(CC[C@@H]1OCC[C@@]2(S(=O)(=O)c3ccc(Cl)cc3)c3c(F)ccc(F)c3OC[C@@H]12)CCN1CCOCC1
Ratio IC50 [1]: 10
IC50 [5]: 3.7 nM

SMILES: O=S(=O)(CC[C@@H]1OCC[C@@]2(S(=O)(=O)c3ccc(Cl)cc3)c3c(F)ccc(F)c3OC[C@@H]12)CCN1CC[C@H](O)C1
Ratio IC50 [1]: 12
IC50 [5]: 0.8 nM

Second part, led by results:

solubility kinetic [2]: ≥ 200 µM
SMILES: Cl.O=S(=O)(CC[C@@H]1OCC[C@@]2(S(=O)(=O)c3ccc(Cl)cc3)c3c(F)ccc(F)c3OC[C@@H]12)[C@@H]1CCNC1

solubility kinetic [2]: > 200 µM
IC50 [5]: 1 nM
SMILES: O=S(=O)(CCO)CC[C@@H]1OCC[C@@]2(S(=O)(=O)c3ccc(Cl)cc3)c3c(F)ccc(F)c3OC[C@@H]12
Activity (Mus musculus [3]): -46%
Activity (Mus musculus [4]): -42%

solubility kinetic [2]: ≥ 200 µM
SMILES: Cl.O=S(=O)(CC[C@@H]1OCC[C@@]2(S(=O)(=O)c3ccc(Cl)cc3)c3c(F)ccc(F)c3OC[C@@H]12)C[C@H]1CCCN1

IC50 (Cytochrome P450 3A4 [6]): 3700 nM
IC50 (Cytochrome P450 2C9): > 20000 nM
hepatocyte CLint [7]: 13.9 µL/min/1e6 cells
IC50 (Cytochrome P450 2D6): > 20000 nM
hepatocyte CLint [8]: 38.8 µL/min/1e6 cells
IC50 (Cytochrome P450 3A4 [9]): 6100 nM
AUC(0-t) at 6 h [10]: 1.17 µM·h
hepatocyte CLint [11]: 17.9 µL/min/1e6 cells
hepatocyte CLint [12]: 14.5 µL/min/1e6 cells
Kp at 6 h [13]: 2
IC50 [5]: 5.1 nM
SMILES: O=S(=O)(CC[C@@H]1OCC[C@@]2(S(=O)(=O)c3ccc(Cl)cc3)c3c(F)ccc(F)c3OC[C@@H]12)[C@@H]1CCNC1 [listing 1 of 2 here]
Activity (Mus musculus [3]): -73%
Activity (Mus musculus [4]): -90%

IC50 [5]: 1.6 nM
SMILES: O=S(=O)(CC[C@@H]1OCC[C@@]2(S(=O)(=O)c3ccc(Cl)cc3)c3c(F)ccc(F)c3OC[C@@H]12)CCN1CCC1
Ratio IC50 [1]: 17

solubility kinetic [2]: ≥ 200 µM
SMILES: Cl.NCCS(=O)(=O)CC[C@@H]1OCC[C@@]2(S(=O)(=O)c3ccc(Cl)cc3)c3c(F)ccc(F)c3OC[C@@H]12

IC50 (Cytochrome P450 3A4 [6]): 1000 nM
IC50 (Cytochrome P450 2C9): > 20000 nM
hepatocyte CLint [7]: 15.2 µL/min/1e6 cells
IC50 (Cytochrome P450 2D6): > 20000 nM
hepatocyte CLint [8]: 26.7 µL/min/1e6 cells
IC50 (Cytochrome P450 3A4 [9]): > 20000 nM
AUC(0-t) at 6 h [10]: 0.674 µM·h
hepatocyte CLint [11]: 12.5 µL/min/1e6 cells
hepatocyte CLint [12]: 5.6 µL/min/1e6 cells
Kp at 6 h [13]: 0.6
IC50 [5]: 0.7 nM
SMILES: O=S(=O)(CC[C@@H]1OCC[C@@]2(S(=O)(=O)c3ccc(Cl)cc3)c3c(F)ccc(F)c3OC[C@@H]12)C[C@@H]1CCCN1
Activity (Mus musculus [3]): -48%
Activity (Mus musculus [4]): -57%

IC50 (Cytochrome P450 3A4 [6]): 1000 nM
IC50 (Cytochrome P450 2C9): > 20000 nM
solubility kinetic [2]: 20 µM (≈ 11.5 µg/mL)
hepatocyte CLint [7]: 25.9 µL/min/1e6 cells
IC50 (Cytochrome P450 2D6): > 20000 nM
hepatocyte CLint [8]: 32 µL/min/1e6 cells
IC50 (Cytochrome P450 3A4 [9]): 13200 nM
AUC(0-t) at 6 h [10]: 0.057 µM·h
hepatocyte CLint [11]: 20.1 µL/min/1e6 cells
hepatocyte CLint [12]: 13.7 µL/min/1e6 cells
IC50 [5]: 5.9 nM
SMILES: O=S(=O)(CC[C@@H]1OCC[C@@]2(S(=O)(=O)c3ccc(Cl)cc3)c3c(F)ccc(F)c3OC[C@@H]12)CC1=NCCN1
Activity (Mus musculus [4]): -86%
